Source: patent US12415785B2, “Compound modulators of sting” (CTXT PTY LTD, priority 2019, dated 2025)

Tests used:
[1] = biological target: human HAQ isoform of STING (THP-1 STING Lucia ISG cells) (Homo sapiens (Human), UniProt Q86WV6, G230A/H232R/R293Q/R71H); experiment: THP-1 STING Lucia ISG reporter cell line assay; assay type: cell-based; settings: 24 h incubation, QUANTI-Luc luminescence
Description: THP-1 STING Lucia ISG cells (InvivoGen #thpI-isg) were cultured in RPMI-1640 containing 2 mM L-glutamine, 25 mM HEPES, 100 μg/mL Normocin (InvivoGen) and 10% heat-inactivated FBS. Cells were seeded at a density of 7×10^5 cells/mL, maintained at 37° C./5% CO2, and passaged every 3-4 days. Selection pressure was maintained by the addition of 100 μg/mL Zeocin every second passage.
Assay conditions: cells were harvested and resuspended at a concentration of 5×10^5 cells/mL in fresh growth media. Of this cell preparation 20 μL per well was dispensed into 384 well cell culture plates (Greiner, #781098X) and incubated at 37° C./5% CO2 for 2 hours. Concentration Response Curves (commonly 11 doses) were prepared by 2.5 fold serial dilution starting from 10 mM compound stock solution in DMSO. Compound dilutions were transferred into the cell culture plates using a pintool (0.1 μL transfer), control wells were matched for DMSO. Positive control wells received ML RR—S2 CDA (Med Chem Express HY12885B) in 5 μL of media to a final concentration of 40 μM. All other wells received additional 5 μL of media only to equalise volume. The plates were incubated for 24 h at 37° C./5% CO2.
For the detection step, QUANTI-Luc (InvivoGen #rep-qlc1) was prepared according to manufacturer's instruction and 10 μL were added per well to the culture plates. Plates were shaken for ten seconds on an orbital shaker and left in the dark at room temperature for two minutes, before luminescence was read on a Perkin Elmer Envision plate reader.
Data analysis: Luminescence raw data was normalised % activity relative to the signal of the positive control wells and negative control wells which were not treated with compound. The following formula was used to calculate normalised % activity from raw signals: % activity=(sample−negative)/(positive−negative)
The THP-1 STING Lucia ISG cell EC50 provides an assessment of activity at the human HAQ isoform of STING. For assessing compound activity against the WT human STING isoform, an equivalent method was conducted where the cells used were THP-1-Dual KI-hSTING-R232 (InvivoGen #thpd-r232).

human STING (WT) = human STING (WT) (Homo sapiens (Human), UniProt Q86WV6, H232R); experiment: Surface plasmon resonance (SPR), STING (WT); assay type: binding; settings: biotinylated STING on streptavidin chip, 8° C.
Description: Biophysical experiments were performed with three different recombinant human STING protein variants designated according to allelic nomenclature of Yi et al., (2013). Codon optimized DNA sequences (for expression in Escherichia coli) encoding amino acid residues 149 to 345 (Swiss Prot Q86WV6) of human STING (WT), human STING (HAQ) and human STING (R232H) were synthesised by GenScript USA Inc (Piscataway, New Jersey, USA). These were ligated into a modified pET43a E. coli expression vector designed to encode N-terminal His tag followed by tobacco etch virus protease (TEV) cleavage site and a STING gene sequence. The resulting protein sequences for the three allelic variants are listed below:
Binding interactions of ligands with STING proteins were quantified using Surface Plasmon Resonance (SPR) with a minimally biotinylated STING protein immobilized on a streptavidin chip surface. […] Minimal biotinylation of purified huSTING proteins was performed using a previously described methodology (Chhabra 2012). Briefly, approximately 20 nmol of recombinant STING protein in 1×TBS buffer (25 mM Tris-HCl, pH 7.5, 150 mM NaCl, 5 mM DTT) was mixed with of EZ-Link™ Sulfo-NHS-LC-LC-Biotin (Thermofisher Scientific, cat #21338) at a molar ratio of 1 to 0.6 and incubated on ice for 2 hours. To remove any unreacted biotin reagent, protein/biotin mixture was passed through a Superdex 75 (10/300 GL) column equilibrated with 10 mM HEPES, pH7.4, 150 mM NaCl, 5 mM DTT, 5%[v/v] glycerol. A protein peak containing biotinylated huSTING protein was collected and stored in aliquots at −80° C.
Streptavidin was simultaneously immobilized in all four channels of a CM5 sensor chip docked in a Biacore instrument (either Biacore S200 or Biacore T200, GE Healthcare) as described previously (Zender 2013). Minimally biotinylated STING protein was captured onto a streptavidin coated chip surface at 8° C. in SPR binding buffer (50 mM HEPES, pH 7.4, 150 mM NaCl, 2%[v/v] DMSO) by gradually injecting in a single channel at a constant flow-rate of 2 μL/min until desired capture level was achieved, typically 3000 to 7000 RU (1 RU=1 pg/mm^2).
All binding experiments were performed at 8° C. in SPR binding buffer. To determine binding affinity, compound interaction with immobilized STING protein was analysed using dose-response experiments. Fresh 10 mM DMSO solutions of compound were diluted directly into SPR binding buffer typically to a concentration of 50 μM and then further diluted 2-fold or 3-fold aiming for either a 5- or 7-point concentration series range. Each ligand concentration series was injected at a constant flow rate of 60 μL/min with a 90 second association and a 180 second dissociation time. These were modified for compounds with longer residence times, so that curves could reach steady-state, or so that compound would be fully dissociated before the subsequent injection.
Scrubber 2 (www.biologic.com.au) was utilized for data processing, where signals were referenced against the blank surface (streptavidin+D-biotin) and further corrected for DMSO refractive index change and then “double-referenced” using a buffer-blank injection (Papalia 2006). Responses were fitted to either a 1:1 steady-state affinity model or a 1:1 kinetic model (that included a mass-transport component), available within Scrubber.

Sequence of human STING (WT) (Q86WV6 other isoform, or with tags, fused parts or gaps, stated change not applied): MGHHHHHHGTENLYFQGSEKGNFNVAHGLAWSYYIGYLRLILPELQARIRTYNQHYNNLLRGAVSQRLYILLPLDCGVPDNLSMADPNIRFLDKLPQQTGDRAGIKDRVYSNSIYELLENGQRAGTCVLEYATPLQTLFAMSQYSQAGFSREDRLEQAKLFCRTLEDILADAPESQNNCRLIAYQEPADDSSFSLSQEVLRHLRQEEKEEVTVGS
Sequence of human HAQ isoform of STING (THP-1 STING Lucia ISG cells) (Q86WV6 whole entry R71H/G230A/H232R/R293Q, canonical isoform): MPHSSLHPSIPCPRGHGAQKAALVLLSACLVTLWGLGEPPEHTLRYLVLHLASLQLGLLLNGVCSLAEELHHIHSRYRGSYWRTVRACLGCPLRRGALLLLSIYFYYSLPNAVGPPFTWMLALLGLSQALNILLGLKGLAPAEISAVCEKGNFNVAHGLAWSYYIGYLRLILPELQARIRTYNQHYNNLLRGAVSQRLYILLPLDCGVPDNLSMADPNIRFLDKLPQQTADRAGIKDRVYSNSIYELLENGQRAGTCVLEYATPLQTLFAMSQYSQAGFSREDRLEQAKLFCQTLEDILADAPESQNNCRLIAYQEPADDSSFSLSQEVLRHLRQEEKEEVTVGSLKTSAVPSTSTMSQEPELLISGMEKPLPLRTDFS

| SMILES | EC50 [1] [µM] | Kd (human STING (WT)) [µM] |
| --- | --- | --- |
| COc1c(C(N)=O)ccc2c1nc(-c1ccc(Cl)cc1C(=O)O)n2CCn1c(-c2ccc(Cl)cc2C(=O)O)nc2c(OC)c(C(N)=O)ccc21 [Example 1, 6,6′-(Ethane-1,2-diylbis(5-carbamoyl-4-methoxy-1H-benzo[d]imidazole-1,2-diyl))bis(3-chlorobenzoic acid)] | 1.07 | 200 |
| NC(=O)c1ccc2c(c1)nc(-c1ccccc1C(=O)O)n2CCn1c(-c2ccccc2C(=O)O)nc2cc(C(N)=O)ccc21 [Example 2, 2,2′-(Ethane-1,2-diylbis(5-carbamoyl-1H-benzo[d]imidazole-1,2-diyl))dibenzoic acid] | > 40 | 80 |
| NC(=O)c1ccc2c(c1)nc(-c1cc(Br)ccc1C(=O)O)n2CCn1c(-c2cc(Br)ccc2C(=O)O)nc2cc(C(N)=O)ccc21 [Example 3, 2,2′-(Ethane-1,2-diylbis(5-carbamoyl-1H-benzo[d]imidazole-1,2-diyl))bis(4-bromobenzoic acid)] | > 40 | 700 |
| COc1c(C(N)=O)ccc2c1nc(-c1ccccc1C(=O)O)n2CCn1c(-c2ccccc2C(=O)O)nc2c(OC)c(C(N)=O)ccc21 [Example 4, 2,2′-(Ethane-1,2-diylbis(5-carbamoyl-4-methoxy-1H-benzo[d]imidazole-1,2-diyl))dibenzoic acid] | 15.9 | > 10 |
| NC(=O)c1ccc2c(c1)nc(-c1ccccc1-c1nn[nH]n1)n2CCn1c(-c2ccccc2-c2nnn[nH]2)nc2cc(C(N)=O)ccc21 [Example 5, 2-(2-(1H-Tetrazol-5-yl)phenyl)-1-(2-(2-(2-(2H-tetrazol-5-yl)phenyl)-5-carbamoyl-1H-benzo[d]imidazol-1-yl)ethyl)-1H-benzo[d]imidazole-5-carboxamide] | 24.8 | 30 |
| COc1c(C(N)=O)ccc2c1nc(-c1ccccc1-c1nn[nH]n1)n2CCn1c(-c2ccccc2-c2nn[nH]n2)nc2c(OC)c(C(N)=O)ccc21 [Example 6, 1,1′-(Ethane-1,2-diyl)bis(2-(2-(2H-tetrazol-5-yl)phenyl)-4-methoxy-1H-benzo[d]imidazole-5-carboxamide)] | 0.902 | 40 |
| COc1c(C(N)=O)ccc2c1nc(-c1ccc(Cl)cc1-c1nn[nH]n1)n2CCn1c(-c2ccc(Cl)cc2-c2nn[nH]n2)nc2c(OC)c(C(N)=O)ccc21 [Example 9, 1,1′-(Ethane-1,2-diyl)bis(2-(4-chloro-2-(2H-tetrazol-5-yl)phenyl)-4-methoxy-1H-benzo[d]imidazole-5-carboxamide)] | 0.777 | 40 |
| COc1c(C(N)=O)ccc2c1nc(-c1c(F)cccc1C(=O)O)n2CCn1c(-c2c(F)cccc2C(=O)O)nc2c(OC)c(C(N)=O)ccc21 [Example 10, 2,2′-(Ethane-1,2-diylbis(5-carbamoyl-4-methoxy-1H-benzo[d]imidazole-1,2-diyl))bis(3-fluorobenzoic acid)] | 1.59 | 5.86 |
| COc1c(C(N)=O)ccc2c1nc(-c1cc(F)c(F)cc1C(=O)O)n2CCn1c(-c2cc(F)c(F)cc2C(=O)O)nc2c(OC)c(C(N)=O)ccc21 [Example 15, 6,6′-(Ethane-1,2-diylbis(5-carbamoyl-4-methoxy-1H-benzo[d]imidazole-1,2-diyl))bis(3,4-difluorobenzoic acid)] | 2.56 | 1000 |

The next lines start with the values.

| EC50 [1] [µM] | Kd (human STING (WT)) [µM] | SMILES |
| --- | --- | --- |
| 1.53 | 0.077 | COc1c(C(N)=O)ccc2c1nc(-c1c(Cl)cccc1C(=O)O)n2CCn1c(-c2c(Cl)cccc2C(=O)O)nc2c(OC)c(C(N)=O)ccc21 (racemic) [Example 22, 2,2′-(Ethane-1,2-diylbis(5-carbamoyl-4-methoxy-1H-benzo[d]imidazole-1,2-diyl))bis(3-chlorobenzoic acid)] |
| 0.297 | 0.034 | COc1c(C(N)=O)ccc2c1nc(-c1c(I)cccc1C(=O)O)n2CCn1c(-c2c(I)cccc2C(=O)O)nc2c(OC)c(C(N)=O)ccc21 (single isomer, unassigned) [Example 19.1, 2,2′-(Ethane-1,2-diylbis(5-carbamoyl-4-methoxy-1H-benzo[d]imidazole-1,2-diyl))bis(3-iodobenzoic acid)] |
| 2.5 | 0.043 | COc1c(C(N)=O)ccc2c1nc(-c1c(Cl)cccc1-c1nn[nH]n1)n2CCn1c(-c2c(Cl)cccc2-c2nn[nH]n2)nc2c(OC)c(C(N)=O)ccc21 (single isomer, unassigned) [Example 23, 1,1′-(Ethane-1,2-diyl)bis(2-(2-chloro-6-(2H-tetrazol-5-yl)phenyl)-4-methoxy-1H-benzo[d]imidazole-5-carboxamide)] |
| 18.4 | 33 | NC(=O)c1ccc2c(c1)nc(-c1c(Br)cccc1C(=O)O)n2CCn1c(-c2c(Br)cccc2C(=O)O)nc2cc(C(N)=O)ccc21 (single isomer, unassigned) [Example 29.1, 2,2′-(Ethane-1,2-diylbis(5-carbamoyl-1H-benzo[d]imidazole-1,2-diyl))bis(3-bromobenzoic acid)] |
| 0.83 | 1.08 | COc1c(C(N)=O)ccc2c1nc(-c1c(F)cc(Cl)cc1C(=O)O)n2CCn1c(-c2c(F)cc(Cl)cc2C(=O)O)nc2c(OC)c(C(N)=O)ccc21 [Example 11, 2,2′-(ethane-1,2-diylbis(5-carbamoyl-4-methoxy-1H-benzo[d]imidazole-1,2-diyl))bis(5-chloro-3-fluorobenzoic acid)] |
| 0.738 | 1.52 | COc1c(C(N)=O)ccc2c1nc(-c1c(F)cc(F)cc1C(=O)O)n2CCn1c(-c2c(F)cc(F)cc2C(=O)O)nc2c(OC)c(C(N)=O)ccc21 [Example 16, 2,2′-(Ethane-1,2-diylbis(5-carbamoyl-4-methoxy-1H-benzo[d]imidazole-1,2-diyl))bis(3,5-difluorobenzoic acid)] |
| > 40 | – | COc1c(C(N)=O)ccc2c1nc(-c1ccc(Cl)c(Cl)c1-c1nn[nH]n1)n2CCn1c(-c2ccc(Cl)c(Cl)c2-c2nn[nH]n2)nc2c(OC)c(C(N)=O)ccc21 [Example 37, 1,1′-(Ethane-1,2-diyl)bis(2-(3,4-dichloro-2-(2H-tetrazol-5-yl)phenyl)-4-methoxy-1H-benzo[d]imidazole-5-carboxamide)] |
